Results from patent US7713559B2, “Amorphous water-soluble calcium citrate salts and method of making and using same” (Kraft Foods Global Brands LLC, priority 2004, dated 2010).

How the values were obtained:
[1] = dissolution in water and freedom from haze and sediment at 350 mg calcium per eight fluid ounce serving; type: physicochemical
From the text: The solution remained completely free of haze and sediment for at least two days of storage at room temperature. Similar or even better results were obtained from the salts prepared having calcium:citrate mole ratios lower than 2:2, even when dissolved in water at higher concentrations.
These powders, in spite of the sediment produced, would provide very acceptable performance in many, if not most, food applications, including instant beverage mixes and acidified RTD beverages.
This behavior might also be acceptable in some situations (i.e., opaque instant beverage mixes), but appears to represent a practical upper limit for applications that require high levels of soluble calcium and/or require a sediment-free transparent appearance.
As an alternative to freeze drying, an amorphous 2:2 mole ratio calcium citrate salt, using the same ingredients as in Example 1, was also successfully produced via spray drying (i.e., pilot scale drying using standard operating conditions and procedures). In this case, chilled calcium hydroxide and citric acid solutions were combined and rapidly spray dried before solidification or sediment formation could occur. […] In a large scale commercial process, the citric acid and calcium hydroxide (or other suitable reagents) would be beneficially combined just prior to spray drying to limit the potential for solidification or sediment formation.
One batch of the chilled citric acid solution was poured into a mix tank jacketed with cooling water and one batch of calcium hydroxide suspension was added with stirring. […] The clear solution was immediately pumped into a semi-works scale spray dryer, fitted with an atomizing nozzle, at a flow rate of about 0.5 kg per minute. Additional batches of citric acid solution and calcium hydroxide suspension were similarly added to the mix tank as needed to prevent complete emptying. A sample of fine white powder was collected from the spray dryer after ten minutes of operation. […] After a further fifteen minutes, the cooling water was shut off from the jacketed mix tank. […] In less than one hour, the atomizing nozzle and pipe between the mix tank and the spray dryer became plugged with an accumulated deposit of insoluble crystalline calcium citrate.

[2] = pH and initial solution appearance of powders added to water at 1 percent; type: physicochemical; settings: powder added to water at a level of 1 percent
Description: Powders prepared according to the present invention, as described above, were added to water at a level of 1 percent to measure pH and assess initial solution appearance. The crystalline commercial 3:2 mole ratio TCC reference material was included for comparison.

[3] = shelf life testing of calcium-fortified RTD beverage; type: physicochemical; settings: CRYSTAL LIGHT RTD lemon beverage
Description: Fortified RTD beverages were formulated with several forms of calcium citrate. The visual appearance, flavor, and stability of the products were evaluated over a seven-month period by an experienced panel. Identical samples of each fortified beverage were prepared for shelf life testing under both ambient (22° C.) and refrigerated (4° C.) storage conditions.
The freeze dried amorphous 2:2 mole ratio calcium citrate salt (17% calcium) of Example 1 was successfully used to fortify a ready-to-drink sugar-free lemon-flavored beverage (CRYSTAL LIGHT®) with 350 mg calcium per eight fluid ounce serving (“excellent source of calcium” level). To formulate the calcium-fortified powdered mix, eight fluid ounces of commercial CRYSTAL LIGHT® RTD beverage mix was mixed thoroughly with 2 g of the freeze dried amorphous 2:2 mole ratio calcium citrate salt.

[4] = calcium-fortified powdered instant drink mixes reconstituted with cold water
Description: One sample of the amorphous salt (2.0 g) was combined with 17.0 g sweetened Cherry Kool-Aid® powdered instant drink mix in a 400 ml beaker. The powdered drink mix contained sugar, fructose, citric acid, calcium phosphate (not a significant source of calcium), artificial flavor, artificial colors, and ascorbic acid. Another sample of the amorphous salt (2.0 g) was combined with 2.0 g artificially-sweetened Lemon CRYSTAL LIGHT® powdered instant drink mix and placed in a 400 ml beaker. The powdered drink mix contained citric acid, potassium citrate, maltodextrin, aspartame, magnesium oxide, natural flavor, lemon juice solids, acesulfame potassium, artificial colors, and BHA.

[5] = room temperature; cited from earlier work
[6] = freeze dried powders of Example 1 or commercial salts, room temperature water, 350 mg calcium per eight fluid ounce serving

Compound: O=C([O-])CC(O)(CC(=O)O)C(=O)[O-].[Ca+2] [2:2, dicalcium citrate]
- time solution remained completely free of haze and sediment ([1]; freeze dried powder, 2 g in 240 ml water, storage at room temperature): at least two
- dissolution behaviour on addition to water [1, 6]: instantly dissolving clear solution
- dissolution in cold water ([1]; larger spray dryer, sample collected after ten minutes of operation, feed cooled, 350 mg calcium per eight fluid ounces): rapidly dissolved in cold water without haze or precipitate
- dissolution in water ([1]; larger spray dryer, sample collected after thirty minutes, cooling water shut off): did not dissolve completely in water
- dissolution behaviour on addition to water ([1]; spray dried salt of Example 2 (pilot scale), 2 g in 240 ml room temperature water, 350 mg calcium per eight ounce serving): instantly dissolving clear solution
- time solution remained completely free of sediment ([1]; spray dried salt of Example 2 (pilot scale), room temperature): at least three
- Initial Solution Appearance [2]: No haze; no sediment
- Solution pH [2]: 4.1
- sediment in fortified RTD beverage during shelf life evaluation ([3]; 350 mg calcium per eight fluid ounces, seven-month period, room temperature (22° C.) and refrigeration (4° C.)): remained sediment free
- dissolution when water was added to fortified drink mix ([4]; 2.0 g salt with Cherry Kool-Aid or Lemon CRYSTAL LIGHT mix, eight fluid ounces cold water, no stirring): dissolved immediately
- time reconstituted beverage remained free of sediment ([4]; Cherry Kool-Aid and Lemon CRYSTAL LIGHT mixes, 350 mg calcium per serving): at least 24 hours

Compound: sesqui-calcium citrate [1.5:2]
- Initial Solution Appearance [2]: No haze; no sediment
- Solution pH [2]: 3.8

Compound: O=C([O-])CC(O)(CC(=O)O)C(=O)O.O=C([O-])CC(O)(CC(=O)O)C(=O)O.[Ca+2] [1:2, monocalcium citrate]
- Initial Solution Appearance [2]: No haze; no sediment
- Solution pH [2]: 3.4

Compound: TCC tetrahydrate [3:2*, reference compound]
- haze and sediment produced at first, on or soon after addition to water ([1]; 350 mg calcium per eight fluid ounce serving): immediately produced a large amount of a coarse, gritty white sediment
- dissolution behaviour on addition to water [1, 6]: did not completely disperse in water
- sediment in fortified RTD beverage upon admixture of the ingredients ([3]; amounts to provide the same level of calcium): noticeable sediment formation
- sediment formation in reconstituted beverage ([4]; 1.7 g in place of the amorphous salt, Cherry Kool-Aid and Lemon CRYSTAL LIGHT mixes): large amounts of coarse gritty sediment were formed immediately
- dissolution of the sediment ([4]; with rapid stirring or with the passage of time): did not dissolve
- solubility in water [5]: less than 0.1%
- soluble calcium provided per fluid ounce of water [5]: about 6 mg
